# Source: patent US20240262832A1, “SMALL MOLECULE MODULATORS OF GLUCOCEREBROSIDASE ACTIVITY AND USES THEREOF” (Vanqua Bio, Inc., priority 2021, published 2024)
# Biological target: T1, GCase (Homo sapiens, UniProt P04062)
# T1 construct: endogenous in cells; host or cells: HeLa cells
# T1 sequence (P04062 40-536): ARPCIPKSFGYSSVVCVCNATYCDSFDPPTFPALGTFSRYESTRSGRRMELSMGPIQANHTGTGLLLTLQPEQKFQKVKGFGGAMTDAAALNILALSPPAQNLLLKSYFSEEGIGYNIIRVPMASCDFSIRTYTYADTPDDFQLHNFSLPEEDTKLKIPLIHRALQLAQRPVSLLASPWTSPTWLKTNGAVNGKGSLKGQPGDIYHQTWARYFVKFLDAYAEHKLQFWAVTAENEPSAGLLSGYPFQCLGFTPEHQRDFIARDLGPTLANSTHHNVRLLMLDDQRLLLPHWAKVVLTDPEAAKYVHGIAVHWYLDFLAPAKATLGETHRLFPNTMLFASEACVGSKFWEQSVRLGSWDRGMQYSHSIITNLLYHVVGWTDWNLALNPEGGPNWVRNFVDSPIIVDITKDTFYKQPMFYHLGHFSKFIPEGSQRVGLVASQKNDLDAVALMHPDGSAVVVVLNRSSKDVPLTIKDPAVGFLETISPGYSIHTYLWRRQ
# Test: activation of GCase in a live cell PFB assay in HELA cells
# Type: cell-based
row,SMILES,EC50 [µM]
1,COc1ccc(OCC2CCN(CC(C)(C)N3CCOCC3)CC2)cc1 [Compound 467],> 100
2,COc1cccn(CC(=O)N2CCC(OCc3ccccc3)CC2)c1=O [Compound 447],> 100
3,"O=C(Cc1ccnn(-c2ccccc2)c1=O)N1CCCC(COc2ccccc2)C1 (stereo not drawn) [Compound 44, 4-(2-Oxo-2-(3-(phenoxymethyl)piperidin-1-yl)ethyl)-2-phenylpyridazin-3(2H)-one]",> 100
4,"Fc1cnc(OC[C@@H]2[C@H]3CN(c4cnc5cnn(C6COC6)c5n4)C[C@@H]23)c(F)c1 [Compound 120, 6-((1R,5S,6r)-6-(((3,5-difluoropyridin-2-yl)oxy)methyl)-3-azabicyclo[3.1.0]hexan-3-yl)-1-(oxetan-3-yl)-1H-pyrazolo[3,4-b]pyrazine]",50 to 100
5,"Cn1c(-c2ccccc2)nc2nc(C(=O)N3C[C@@H]4[C@@H](COc5cccnc5C(F)(F)F)[C@@H]4C3)cnc21 [Compound 105, (1-methyl-2-phenyl-1H-imidazo[4,5-b]pyrazin-5-yl)((1R,5S,6r)-6-(((2-(trifluoromethyl)pyridin-3-yl)oxy)methyl)-3-azabicyclo[3.1.0]hexan-3-yl)methanone]",> 100
6,COc1ccc(OCCCC(=O)N2CCCC(COc3ccccc3)C2)cc1 (stereo not drawn) [Compound 12],10 to 50
7,"O=C(Cc1csc(-c2ccccc2)n1)N1CCC(Oc2ccnc(C(F)(F)F)c2)CC1 [Compound 399, 2-(2-Phenyl-1,3-thiazol-4-yl)-1-(4-{[2-(trifluoromethyl)pyridin-4-yl]oxy}piperidin-1-yl)ethan-1-one]",10 to 50
8,COc1ccc(OCC2CCN(c3nccc(N4CCCC(O)C4)n3)CC2)cc1 (stereo not drawn) [Compound 424],< 10
9,"C[C@@H]1CC[C@H](COc2cccc(C(F)(F)F)n2)CN1c1cnc2cnn(CC(F)F)c2n1 [Compound 269, 1-(2,2-Difluoroethyl)-6-((2R,5S)-2-methyl-5-(((6-(trifluoromethyl)pyridin-2-yl)oxy)methyl)piperidin-1-yl)-1H-pyrazolo[3,4-b]pyrazine]",> 100
10,O=C(N1CCCC(COc2ccccc2)C1)C12CCC(C(F)F)(CC1)C2 (stereo not drawn) [Compound 10],10 to 50
11,CN1CCc2cc(C(=O)N3CCCC(COc4ccccc4)C3)ccc21 (stereo not drawn) [Compound 181],10 to 50
12,CC(=O)c1ccc(OCC(=O)N2CCC(OCc3ccccc3)CC2)cc1 [Compound 478],50 to 100
13,COc1ccc(OCC2CCN(c3nc(C)ncc3Cl)CC2)cc1 [Compound 421],10 to 50
14,"FC(F)(F)c1ccc2sc([C@H]3[C@@H]4CN(c5cnc6cnn(C7COC7)c6n5)C[C@@H]43)nc2c1 [Compound 290, 2-((1R,5S,6r)-3-(1-(Oxetan-3-yl)-1H-pyrazolo[3,4-b]pyrazin-6-yl)-3-azabicyclo[3.1.0]hexan-6-yl)-5-(trifluoromethyl)benzo[d]thiazole]",10 to 50
15,"Cc1cccc2cc(C(=O)N3CCC(Oc4ccccc4)CC3)oc12 [Compound 409, 1-(7-Methyl-1-benzofuran-2-carbonyl)-4-phenoxypiperidine]",10 to 50

# More lines, now with the values ahead:
row,EC50 [µM],SMILES
1,< 10,"FC(F)(F)c1cccc(OC[C@@H]2[C@H]3CN(c4cncc(-c5nncs5)n4)C[C@@H]23)n1 [Compound 60, (1R,5S,6S)-3-[6-(1,3,4-thiadiazol-2-yl)pyrazin-2-yl]-6-({[6-(trifluoromethyl)pyridin-2-yl]oxy}methyl)-3-azabicyclo[3.1.0]hexane]"
2,10 to 50,"O=C(c1ccc2ccn(CC3COC3)c2c1)N1CCC[C@H](CCc2ccccc2C(F)(F)F)C1 [Compound 18, 1-[(oxetan-3-yl)methyl]-6-[(3S)-3-{2-[2-(trifluoromethyl)phenyl]ethyl}piperidine-1-carbonyl]-1H-indole]"
3,< 10,"C[C@@H]1C[C@H](COc2cccnc2C(F)(F)F)CN(c2cnc3cnn(CC(F)F)c3n2)C1 [Compound 47a, 1-(2,2-Difluoroethyl)-6-((3R,5S)-3-methyl-5-(((2-(trifluoromethyl)pyridin-3-yl)oxy)methyl)piperidin-1-yl)-1H-pyrazolo[3,4-b]pyrazine]"
4,10 to 50,"O=C(c1ccc2cc[nH]c2c1)N1CCC(Oc2cnccc2C(F)(F)F)CC1 [Compound 310, (1H-Indol-6-yl)(4-((4-(trifluoromethyl)pyridin-3-yl)oxy)piperidin-1-yl)methanone]"
5,10 to 50,"O=c1cc(-c2ccccc2)cc(N2CCC[C@H](COc3cccnc3C(F)(F)F)C2)[nH]1 [Compound 300, (S)-4-Phenyl-6-(3-(((2-(trifluoromethyl)pyridin-3-yl)oxy)methyl)piperidin-1-yl)pyridin-2(1H)-one]"
6,> 100,COc1ccc(OCC2CCN(Cc3cc(C)no3)CC2)cc1 [Compound 425]
7,10 to 50,COc1ccc(OCC2CCN(Cc3ccc(CO)o3)CC2)cc1 [Compound 448]
8,> 100,COc1ccc(OCC2CCN(C(=O)Cn3cnnn3)CC2)cc1 [Compound 484]
9,10 to 50,"FC(F)Cn1ncc2ncc(N3C[C@@H]4[C@@H](COc5ccc(C(F)(F)F)cn5)[C@@H]4C3)nc21 [Compound 61, (1R,5S,6S)-3-[1-(2,2-difluoroethyl)-1H-pyrazolo[3,4-b]pyrazin-6-yl]-6-({[5-(trifluoromethyl)pyridin-2-yl]oxy}methyl)-3-azabicyclo[3.1.0]hexane]"
10,10 to 50,"CC(CC1CCCN(c2cnc3cnn(CC(F)F)c3n2)C1)c1ccccc1C(F)(F)F (stereo not drawn) [Compound 66, 1-(2,2-Difluoroethyl)-6-(3-(2-(2-(trifluoromethyl)phenyl)propyl)piperidin-1-yl)-1H-pyrazolo[3,4-b]pyrazine]"
11,> 100,"Cn1c(-c2ccc(F)cc2)nc2nc(C(=O)N3CCCC(COc4cccnc4C(F)(F)F)C3)cnc21 (stereo not drawn) [Compound 97, (2-(4-Fluorophenyl)-1-methyl-1H-imidazo[4,5-b]pyrazin-5-yl)(3-(((2-(trifluoromethyl)pyridin-3-yl)oxy)methyl)piperidin-1-yl)methanone]"
12,> 100,"C[C@@H]1CCN(c2cnc3cnn(CC(F)F)c3n2)C[C@@H]1COc1cccnc1C(F)(F)F [Compound 48a, 1-(2,2-Difluoroethyl)-6-((3R,4R)-4-methyl-3-(((2-(trifluoromethyl)pyridin-3-yl)oxy)methyl)piperidin-1-yl)-1H-pyrazolo[3,4-b]pyrazine]"
13,50 to 100,CCCc1[nH]ncc1C(=O)N1CCC(OCc2ccccc2)CC1 [Compound 465]
14,> 100,O=C(c1ncc(Cl)s1)N1CCCC(COc2ccccc2)C1 (stereo not drawn) [Compound 137]
15,10 to 50,"Cn1c(-c2ccccc2)cc2ncc(C(=O)N3CCCC(COc4cccnc4C(F)(F)F)C3)nc21 (stereo not drawn) [Compound 50, (5-Methyl-6-phenyl-5H-pyrrolo[2,3-b]pyrazin-3-yl)(3-(((2-(trifluoromethyl)pyridin-3-yl)oxy)methyl)piperidin-1-yl)methanone]"
16,10 to 50,"O=C(Cc1csc(-c2ccccc2)n1)N1CCC(Oc2cccc(C(F)(F)F)n2)CC1 [Compound 402, 2-(2-Phenyl-1,3-thiazol-4-yl)-1-(4-{[6-(trifluoromethyl)pyridin-2-yl]oxy}piperidin-1-yl)ethan-1-one]"
17,10 to 50,"Cc1ccccc1OCC1CCCN(C(=O)c2cnc3c(cnn3-c3ccccc3)n2)C1 (stereo not drawn) [Compound 67, (1-phenyl-1H-pyrazolo[3,4-b]pyrazin-5-yl)(3-((o-tolyloxy)methyl)piperidin-1-yl)methanone]"
18,10 to 50,O=C(c1cc(-c2cccc(F)c2)no1)N1CCCC(COc2ccccc2)C1 (stereo not drawn) [Compound 197]
